Test results taken from publication PMC9329053, “Discovery of Novel Tyrosinase Inhibitors From Marine Cyanobacteria” (Frontiers in Microbiology, 2022).
Read-outs that look alike come from different tables or passages of the source. One block for each molecule: values may come before it.

How the values were obtained:
Mushroom tyrosinase [1] = details: cited from earlier work
[2] = molecular target: T1, mushroom tyrosinase (A. bisporus) (Agaricus bisporus, UniProt C7FF04); test: Dynamic dose-dependent tyrosinase inhibition study; format: biochemical
T1 construct: purchased Sigma-Aldrich and Worthington Biochemical Corp
T1 sequence (C7FF04 1-392): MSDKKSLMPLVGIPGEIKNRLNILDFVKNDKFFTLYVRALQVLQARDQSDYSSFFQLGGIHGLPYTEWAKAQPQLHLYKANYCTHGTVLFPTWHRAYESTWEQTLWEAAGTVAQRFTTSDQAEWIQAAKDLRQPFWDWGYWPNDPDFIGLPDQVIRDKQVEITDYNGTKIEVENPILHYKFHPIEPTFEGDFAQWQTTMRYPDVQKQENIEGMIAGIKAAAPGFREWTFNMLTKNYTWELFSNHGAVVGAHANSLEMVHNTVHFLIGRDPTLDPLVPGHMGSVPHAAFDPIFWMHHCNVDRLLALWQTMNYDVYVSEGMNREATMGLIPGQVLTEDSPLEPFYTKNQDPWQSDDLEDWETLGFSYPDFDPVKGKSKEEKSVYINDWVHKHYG
Method: Respectively, the final concentration gradient of the test samples was set to be 200, 150, 75, 25, 5, and 1 μM. For OD measurements, the plate was read in the dynamic mode for 60 min with measurements recorded every minute, using the SpectraMax M3 plate reader at 475 nm and 490 nm. Forty-five seconds of shaking was also performed before first reading to retain method consistency.

[3] = parameters: method as in Malla and Sommer, 2014; Kang et al., 2020; details: ref Malla and Sommer, 2014; Kang et al., 2020; cited from earlier work
[4] = molecular target: T1, mushroom tyrosinase (A. bisporus); test: End-point colorimetric tyrosinase inhibition assay (broad screening); format: biochemical; details: within 20 minutes; 475 and 490 nm; blank with enzyme rises to ~0.100
Method: Four types of assay wells were designated for each screening plate (see Supplementary Figure S2 for visualization), in which the following reaction mixtures were added: A [Blank Control with Enzyme] contains 2 μl of DMSO, 118 μl of prepared 0.067 M sodium phosphate buffer and 40 μl of tyrosinase (100 units/ml) in the same buffer; B [Blank Control without Enzyme] contains 2 μl of DMSO and 158 μl of 0.067 M sodium phosphate buffer; C [Testing Material with Enzyme] contains 2 μl of sample (1 mg/ml in DMSO), 118 μl of 0.067 M sodium phosphate buffer and 40 μl of tyrosinase (100 Units/mL) in the same buffer; D [Testing Material without Enzyme] contains 2 μl of sample (1 mg/ml in DMSO) and 158 μl of 0.067 M sodium phosphate buffer. Samples were tested in triplicate.
The final test sample concentration was 10 μg/ml, while the final DMSO concentrations for both negative controls and samples kept ≤1%. […] Forty-five seconds of shaking was performed by the instrument before the wells were read.
The percentage inhibition of the tyrosinase activity was calculated by the equation: % Inhibition = {[(A − B) − (C − D)]/(A − B)} × 100, where A, B, C and D are all OD values from the corresponding wells at the same time point. It reflects the inhibitory strength of the testing material by comparing to the blank condition where no inhibitor is added.

mushroom tyrosinase [5] = molecular target: T2, mushroom tyrosinase (Agaricus bisporus, UniProt C7FF04); test: Kinetic analysis of tyrosinase and inhibitors (Lineweaver-Burk); format: biochemical, A. bisporus
T2 construct: purchased Sigma-Aldrich and Worthington Biochemical Corp
T2 sequence (C7FF04 1-392): as above
Method: The Lineweaver–Burk plot was generated using Graphpad Prism 9.2.0. Experiments were performed in triplicate.
A kinetic study was performed to better understand the tyrosinase inhibitory properties of ScyM. For this kinetic mode analysis, varying concentrations of substrate and inhibitor were used in the assays in order to generate Lineweaver–Burk plots. […] The Lineweaver–Burk plot (Figures 6A,B), also known as the double reciprocal plot, is commonly used to determine the mechanism of how an inhibitor is inhibiting an enzyme. […] Two inhibition parameters, the Michaelis–Menten constant (Km) and maximal velocity (Vmax), are also visualized in this plot. […] The apparent Km and Vmax values were calculated as an average of triplicate measurements and are provided with standard deviations (see Table 2).

[6] = system: NCI-H460 human lung carcinoma cell line; test: MTT cytotoxicity assay; format: cell-based; details: H460 human lung cancer cells; no significant effect at concentration as high as 254 μM
Method: The cytotoxicity assay was performed using a protocol previously published ([Yu H.-B. et al., 2019]; [Leber et al., 2020]). Briefly, the MTT staining method was used to determine the cytotoxicity of compounds of interest using the NCI-H460 human lung carcinoma cell line purchased from ATCC (Manassas, VA, United States). The cells were grown in flasks and then seeded into wells at 3.33 × 10^4 cells/ml of Roswell Park Memorial Institute (RPMI-1640) medium with standard fetal bovine serum (FBS), leading to 180 μl/well. The cells were then pre-incubated for 24 h at 37°C in 96-well plates before drug was added. Thereafter, with addition of diluted compounds of interest dissolved in DMSO, plates were incubated for an additional 48 h and then stained with MTT (thiazolyl blue tetrazolium bromide 98%; Sigma-Aldrich) for 25 min, after which the optical densities (OD) were recorded at 630 and 570 nm for each well on a SpectraMax M3 plate reader (Molecular Devices, San Jose, CA, United States). Doxorubicin and 1% DMSO in RPMI-1640 without fetal bovine serum were used as positive and negative controls, respectively. Polyethylene glycol (PEG) was used to facilitate dissolution of compounds with limited solubility.

tyrosinase = molecular target: T3, tyrosinase (Agaricus bisporus, UniProt C7FF04); test: Isobologram / interaction index analysis of ScyM and KA; format: biochemical, A. bisporus; details: single compounds, determined again for the isobologram; read-out: IC50 (another round of dose-dependent assays)
T3 construct: purchased Sigma-Aldrich and Worthington Biochemical Corp
T3 sequence (C7FF04 1-392): as above
Source text: Based on the derived equation, γ=∑i=2ndi/Di , where Di represents the dose of an individual drug to achieve 50% efficacy when acting alone, and di represents the dose of each drug in the compound mixture when the combined drug achieves 50% efficacy. Accordingly, when the interactions between drugs are synergistic, additive, and antagonistic, the corresponding values of γ are <1, = 1, and >1, respectively. Therefore, the smaller the index value, the stronger the synergistic effect.

[7] = Solubility of ScyM in the assay buffer system
[8] = mushroom tyrosinase, SD not given, ref Sheng et al., 2018
[9] = mushroom tyrosinase, ref Paudel et al., 2019
[10] = mushroom tyrosinase, SD not given, ref Li et al., 2005
[11] = mushroom tyrosinase, SD not given, ref Wu et al., 2013

Molecule: COc1ccc(/C=C/C(=O)Oc2cc(OC)ccc2C(C)=O)cc1 [(E)-2-Acetyl-5-methoxyphenyl-3-(4-methoxyphenyl)acrylate]
IC50 (Mushroom tyrosinase [1]; [8]): 8.3 µM
Mechanism (Mushroom tyrosinase [1]; ref Sheng et al., 2018): Mixed

Molecule: O=C(O)c1ccc(C(=O)O)cc1 [Terephthalic acid]
IC50 (Mushroom tyrosinase [1]; mushroom tyrosinase, ref Yin et al., 2011): 26600 µM
Mechanism (Mushroom tyrosinase [1]; ref Yin et al., 2011): Mixed

Molecule: CC[C@H](C)[C@@H]1NC(=O)[C@H](Cc2ccc(O)cc2)N(C)C(=O)[C@H]([C@H](C)O)N2C(=O)[C@H](CC[C@H]2O)NC(=O)[C@H](CC(C)C)NC(=O)[C@@H](NC(=O)[C@H](CCC(N)=O)NC(=O)[C@H](CCc2ccc(O)cc2)NC(=O)[C@H](O)CO)[C@@H](C)OC1=O [oscillapeptin G]
IC50 (Mushroom tyrosinase [1]; tyrosinase, post-conversion, ref Sano and Kaya, 1996): ~100 µM

Molecule: OCCc1c(Br)c(O)c(O)c(Br)c1Br [2,3,6-Tribromo-4,5-dihydroxybenzyl methyl alcohol]
IC50 (Mushroom tyrosinase [1]; [9]): 270.5 ± 2.04 µM
Mechanism (Mushroom tyrosinase [1]; ref Paudel et al., 2019): Competitive

tyrosinase inhibition in dose-dependent assay ([2]; all concentrations tested, from 1 up to 200 μM): almost no inhibition
Molecule: scytonemin
cytotoxicity [3]: non-cytotoxic

Molecule: O=C1C=C2CC3(O)COc4cc(O)ccc4C3=C2C=C1O (stereo not drawn) [Brazilein]
IC50 (Mushroom tyrosinase [1]; mushroom tyrosinase, ref Hridya et al., 2015): 21200 µM
Mechanism (Mushroom tyrosinase [1]; ref Hridya et al., 2015): Mixed

OD reading with tyrosinase enzyme [4]: ~ 0.080
IC50 [2]: 4.9 ± 0.3 µM
inhibition at 25 µM ([2]; read-out: inhibition by crude ScyM): ~60%
inhibition at 10 µM ([2]; read-out: inhibition by purified ScyM): ~60%
Inhibition mode (mushroom tyrosinase [5]; Lineweaver-Burk plot, L-Dopa substrate): Mixed
Mechanism (mushroom tyrosinase [5]; Table 3, this experiment): Mixed
Vmax (OD·min^−1) (mushroom tyrosinase [5]; apparent Vmax of tyrosinase with inhibitor, L-Dopa substrate, triplicate with SD): 5.98 ± 0.52 OD·min^−1
IC50 (tyrosinase): 4.7 µM
saturation point in the assay system ([7]; 0.067 M sodium phosphate buffer, ≤1% DMSO, precipitate seen at 75, 150 and 200 μM): less than 75 μM
dissolution in the assay buffer system ([7]; range of 0–10 μM): fully dissolves with no precipitate
Molecule: O=C1Cc2c([nH]c3ccccc23)/C1=C\c1ccc(O)cc1 [ScyM, scytonemin monomer]
cytotoxicity [6]: non-cytotoxic

Molecule: O=c1cc(-c2ccccc2)oc2cc(O)c(O)c(O)c12 [Baicalein]
IC50 (Mushroom tyrosinase [1]; mushroom tyrosinase, SD not given, ref Guo et al., 2018): 110 µM
Mechanism (Mushroom tyrosinase [1]; ref Guo et al., 2018): Mixed

Molecule: O=C(O)c1cccc(-c2ccccc2)c1 [3-Phenylbenzoic acid (3-PBA), 3-Phenylbenzoic acid]
IC50 (Mushroom tyrosinase [1]; mushroom tyrosinase, SD not given, ref Oyama et al., 2016): 36.3 µM
Mechanism (Mushroom tyrosinase [1]; ref Oyama et al., 2016): Mixed

Molecule: Cc1ccc(C(C)C)c(OC(=O)/C=C/c2ccc(O)cc2)c1 [(E)-2-Isopropyl-5-methylphenyl-3-(4-hydroxyphenyl)acrylate]
IC50 (Mushroom tyrosinase [1]; [8]): 10.6 µM
Mechanism (Mushroom tyrosinase [1]; ref Sheng et al., 2018): Mixed

Molecule: CCCCCc1cccc(=O)o1 [6-n-Pentyl-α-pyrone]
IC50 (Mushroom tyrosinase [1]; [10]): 0.8 µM

inhibition at 35 µM ([2]; 35 μM): ~1%
Molecule: COc1ccc(/C=C2/C(=O)Cc3c2[nH]c2ccccc32)cc1 [ScyM-OMe, O-Methyl Scytonemin Monomer]

Molecule: C=C[C@]1(O)CC(NC=O)=CC1=O [Myrothenone A]
IC50 (Mushroom tyrosinase [1]; [10]): 6.6 µM

melting point: > 210 °C
Molecule: O=C1Cc2c([nH]c3ccccc23)/C1=C\c1ccc(O)cc1 (hydrate or solvate) [ScyM, scytonemin monomer]

Molecule: CC(=O)O[C@@]12C[C@@H](C(C)(C)O)C[C@@H](OC(=O)c3ccccc3)[C@@]1(CO)[C@H](O)[C@H](O)C[C@@]2(C)OC(C)=O [4α,5α-Diacetoxy-9α-benzoyloxy-7βH-eudesman-1β,2β,11, 14-tetraol]
IC50 (Mushroom tyrosinase [1]; [11]): 22.3 µM

Molecule: CC(=O)OC[C@]12[C@H](OC(C)=O)[C@H](O)C[C@H](C)[C@]1(OC(C)=O)[C@@H](OC(C)=O)[C@@H](C(C)(C)O)C[C@H]2OC(=O)c1ccccc1 [1β,5α,6α,14-Tetraacetoxy-9α-benzoyloxy-7β H-eudesman-2β,11-diol]
IC50 (Mushroom tyrosinase [1]; [11]): 14.8 µM

Molecule: Bis-(2,3,6-tribromo-4,5-dihydroxybenzyl methyl ether
IC50 (Mushroom tyrosinase [1]; [9]): 111 ± 4.95 µM
Mechanism (Mushroom tyrosinase [1]; ref Paudel et al., 2019): Competitive
